Measured values: patent US11001590B2, “Pyrazolopyrimidine derivatives” (BAYER ANIMAL HEALTH GMBH, priority 2016, dated 2021)

Target: C. elegans Slo-1a (Caenorhabditis elegans, UniProt Q95V25)
Assay: In vitro assay 1: C. elegans Slo-1a, action at a recombinant C. elegans CHO cell line (membrane potential measurement)
Settings: CHO cells expressing C. elegans Slo-1a; voltage sensitive dye, FLIPR Tetra; negative decadic logarithm of EC50

Sequence of C. elegans Slo-1a (Q95V25 whole entry): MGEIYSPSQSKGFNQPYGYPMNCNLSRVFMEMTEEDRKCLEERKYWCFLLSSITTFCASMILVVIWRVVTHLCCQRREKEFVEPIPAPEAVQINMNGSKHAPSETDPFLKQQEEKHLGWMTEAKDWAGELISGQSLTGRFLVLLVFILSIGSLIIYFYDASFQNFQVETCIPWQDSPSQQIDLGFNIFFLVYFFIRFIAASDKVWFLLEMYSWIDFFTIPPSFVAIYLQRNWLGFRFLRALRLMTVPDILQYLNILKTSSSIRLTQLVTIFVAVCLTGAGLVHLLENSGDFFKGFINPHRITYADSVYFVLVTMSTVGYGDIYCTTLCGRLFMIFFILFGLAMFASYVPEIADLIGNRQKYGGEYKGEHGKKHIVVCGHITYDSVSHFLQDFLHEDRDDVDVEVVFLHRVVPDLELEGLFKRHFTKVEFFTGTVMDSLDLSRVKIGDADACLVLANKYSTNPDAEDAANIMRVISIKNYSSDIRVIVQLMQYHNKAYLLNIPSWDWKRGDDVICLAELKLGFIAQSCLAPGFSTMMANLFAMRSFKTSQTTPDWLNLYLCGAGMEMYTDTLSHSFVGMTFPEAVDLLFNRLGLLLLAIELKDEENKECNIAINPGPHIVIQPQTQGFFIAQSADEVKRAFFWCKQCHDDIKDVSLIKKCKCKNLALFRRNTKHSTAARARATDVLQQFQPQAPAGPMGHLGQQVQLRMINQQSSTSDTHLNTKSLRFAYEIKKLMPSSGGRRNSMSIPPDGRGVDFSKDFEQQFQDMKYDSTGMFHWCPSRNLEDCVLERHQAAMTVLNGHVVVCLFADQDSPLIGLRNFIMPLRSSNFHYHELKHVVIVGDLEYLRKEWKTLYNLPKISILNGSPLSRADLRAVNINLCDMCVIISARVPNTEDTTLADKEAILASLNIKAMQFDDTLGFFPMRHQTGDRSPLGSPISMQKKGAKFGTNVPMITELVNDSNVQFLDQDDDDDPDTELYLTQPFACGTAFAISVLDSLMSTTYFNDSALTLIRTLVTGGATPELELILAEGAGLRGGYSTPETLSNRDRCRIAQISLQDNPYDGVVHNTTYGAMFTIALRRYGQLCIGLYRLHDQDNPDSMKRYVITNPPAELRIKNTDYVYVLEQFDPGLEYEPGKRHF

| Structure (SMILES) | pE50 |
| --- | --- |
| Cc1nn2c(C(C)C)c(C(=O)N[C@H]3CCc4ccccc43)cnc2c1-c1cc(Cl)cc(Cl)c1 [Example 8] | 7.5 |
| Cc1nn2c(C)c(C(=O)N[C@H]3CCCc4ccccc43)cnc2c1-c1ccccc1Cl [Example 9] | 7.8 |
| Cc1nn2c(C)c(C(=O)N[C@H]3CCc4ccccc43)cnc2c1-c1ccccc1Cl [Example 14] | 7.7 |
| Cc1nn2c(C)c(C(=O)N[C@H]3CCCc4ccccc43)cnc2c1-c1cccc(C(F)(F)F)c1 [Example 15] | 6.7 |
| Cc1nn2c(C)c(C(=O)N[C@H]3CCc4ccccc43)cnc2c1-c1cccc(C(F)(F)F)c1 [Example 16] | 6.7 |
| Cc1nn2c(C(C)C)c(C(=O)N[C@H]3CCCc4ccccc43)cnc2c1-c1ccccc1Cl [Example 19] | 8 |
| Cc1nn2c(C(C)C)c(C(=O)N[C@H]3CCc4ccccc43)cnc2c1-c1ccccc1Cl [Example 20] | 7.9 |
| CC(C)c1c(C(=O)N[C@H]2CCCc3ccccc32)cnc2c(-c3ccccc3Cl)cnn12 [Example 21] | 6.5 |
| CC(C)c1c(C(=O)N[C@H]2CCc3ccccc32)cnc2c(-c3ccc(Cl)cc3)cnn12 [Example 23] | 7.2 |
| CC(C)c1c(C(=O)N[C@H]2CCc3ccccc32)cnc2c(-c3ccccc3Cl)cnn12 [Example 24] | 7.2 |
| CC(C)c1c(C(=O)N[C@H]2CCCc3ccccc32)cnc2c(-c3ccc(Cl)cc3)cnn12 [Example 25] | 6.6 |
| Cc1nn2c(C)c(C(=O)N[C@H]3CCc4ccccc43)cnc2c1-c1ccc(Cl)cc1 [Example 27] | 7.2 |
| Cc1nn2c(C(C)C)c(C(=O)N[C@H]3CCCc4ccccc43)cnc2c1-c1ccc(Cl)cc1 [Example 29] | 6.7 |
| Cc1c(C(=O)N[C@H]2CCc3ccccc32)cnc2c(-c3ccc(Cl)cc3)cnn12 [Example 31] | 6.7 |
| Cc1nn2c(C(C)C)c(C(=O)N[C@H]3CCc4ccccc43)cnc2c1-c1ccc(Cl)cc1 [Example 32] | 7.5 |
| CC(C)c1c(C(=O)N[C@H]2CCc3ccccc32)cnc2c(-c3cccc(C(F)(F)F)c3)cnn12 [Example 37] | 6.7 |
| CC(C)c1c(C(=O)N[C@H]2CCc3ccccc32)cnc2c(-c3cccc(Cl)c3)cnn12 [Example 40] | 6.5 |
| Cc1c(C(=O)N[C@H]2CCCc3ccccc32)cnc2c(-c3ccc(Cl)cc3)cnn12 [Example 41] | 4.8 |
| Cc1c(C(=O)N[C@H]2CCCc3ccccc32)cnc2c(-c3ccccc3Cl)cnn12 [Example 42] | 6.2 |
| Cc1c(C(=O)N[C@H]2CCc3ccccc32)cnc2c(-c3ccccc3Cl)cnn12 [Example 43] | 6.8 |
| COc1c(F)ccc(-c2c(C(F)F)nn3c(C4CC4)c(C(=O)N[C@H]4CCOc5ccccc54)cnc23)c1F [Example 269] | 9 |
| O=C(N[C@H]1CCOc2ccccc21)c1cnc2c(-c3cccc(F)c3F)c(C(F)F)nn2c1C1CC1 [Example 270] | 8.4 |
| O=C(N[C@H]1CCOc2ccccc21)c1cnc2c(-c3c(Cl)cccc3Cl)c(C(F)F)nn2c1C1CC1 [Example 271] | 8.5 |
| O=C(N[C@H]1CCOc2ccccc21)c1cnc2c(-c3cc(Cl)c(F)c(Cl)c3)c(C(F)F)nn2c1C1CC1 [Example 272] | 7.6 |

| Structure (SMILES) | pE50 |
| --- | --- |
| O=C(N[C@H]1CCOc2ccccc21)c1cnc2c(-c3cccc(Cl)c3)c(C(F)F)nn2c1C1CC1 [Example 273] | 8.3 |
| O=C(N[C@H]1CCOc2ccccc21)c1cnc2c(-c3ccc(F)c(F)c3)c(C(F)F)nn2c1C1CC1 [Example 274] | 7.7 |
| CC(C)c1c(C(=O)N[C@H]2CCOc3ccccc32)cnc2c(-c3cccc(Cl)c3)c(Cl)nn12 [Example 275] | 7.9 |
| CC(C)c1c(C(=O)N[C@H]2CCOc3ccccc32)cnc2c(-c3cccc(Cl)c3)c(C(F)F)nn12 [Example 276] | 8 |
| CC(C)c1c(C(=O)N[C@H]2CCOc3ccccc32)cnc2c(-c3c(F)ccc(Cl)c3F)c(C(F)F)nn12 [Example 277] | 8.8 |
| CC(C)c1c(C(=O)N[C@H]2CCOc3ccccc32)cnc2c(-c3ccc(F)c(F)c3)c(C(F)F)nn12 [Example 278] | 7.5 |
| CC(C)c1c(C(=O)N[C@H]2CCOc3ccccc32)cnc2c(-c3cccc(F)c3F)c(C(F)F)nn12 [Example 279] | 8.2 |
| O=C(N[C@H]1CCOc2ccccc21)c1cnc2c(-c3c(F)ccc(Cl)c3F)c(C(F)F)nn2c1C1CC1 [Example 280] | 8.9 |
| CC(C)c1c(C(=O)N[C@H]2CCOc3ccccc32)cnc2c(-c3cc(Cl)c(F)c(Cl)c3)c(C(F)F)nn12 [Example 282] | 8.3 |
| Cc1nn2c(C(C)C)c(C(=O)N[C@H]3CCOc4ccccc43)cnc2c1-c1ccc(F)c(N(C)C)c1F [Example 283] | 9.3 |
| COc1c(F)ccc(-c2c(C)nn3c(C4CC4)c(C(=O)N[C@H]4CCOc5ccccc54)cnc23)c1F [Example 284] | 9.1 |
| CC(C)c1c(C(=O)N[C@H]2CCc3ccccc32)cnc2c(-c3cccc(F)c3F)c(Cl)nn12 [Example 285] | 8 |
| CC(C)c1c(C(=O)N[C@H]2CCCc3ccccc32)cnc2c(-c3cccc(F)c3F)c(Cl)nn12 [Example 286] | 7.9 |
| CCc1c(C(=O)N[C@H]2CCOc3ccccc32)cnc2c(-c3cccc(F)c3F)c(C)nn12 [Example 477] | 8.2 |
| CCc1c(C(=O)N[C@H]2CCOc3ccccc32)cnc2c(-c3c(F)cccc3Cl)c(C)nn12 [Example 479] | 8.2 |
| Cc1nn2c(C3CC3)c(C(=O)N[C@H]3CCOc4ccccc43)cnc2c1-c1cccc(Cl)c1F [Example 480] | 8.9 |
| Cc1nn2c(C(C)C)c(C(=O)N[C@H]3CCOc4ccccc43)cnc2c1-c1cccc2[nH]ccc12 [Example 481] | 7.7 |
| COc1c(F)cc(F)c(-c2c(C)nn3c(C4CC4)c(C(=O)N[C@H]4CCOc5ccccc54)cnc23)c1F [Example 482] | 9.2 |
| Cc1nn2c(C(C)C)c(C(=O)N[C@H]3CCOc4ccccc43)cnc2c1-c1cccc2c1ccn2C [Example 483] | 7.8 |
| CCc1c(C(=O)N[C@H]2CCOc3ccccc32)cnc2c(-c3cccc(Cl)c3Cl)c(C)nn12 [Example 484] | 8.6 |
| CCc1c(C(=O)N[C@H]2CCOc3ccccc32)cnc2c(-c3ccc(Cl)cc3Cl)c(C)nn12 [Example 485] | 8.2 |
| CCc1c(C(=O)N[C@H]2CCOc3ccccc32)cnc2c(-c3cc(Cl)ccc3Cl)c(C)nn12 [Example 486] | 8.4 |
| CCc1c(C(=O)N[C@H]2CCOc3ccccc32)cnc2c(-c3ccc(F)c(F)c3)c(C)nn12 [Example 487] | 7.7 |
| CCc1c(C(=O)N[C@H]2CCOc3ccccc32)cnc2c(-c3cccc(Cl)c3)c(C)nn12 [Example 488] | 8.2 |

| Structure (SMILES) | pE50 |
| --- | --- |
| CCc1c(C(=O)N[C@H]2CCOc3ccccc32)cnc2c(-c3ccc(F)c(F)c3F)c(C)nn12 [Example 490] | 8.3 |
| CCc1c(C(=O)N[C@H]2CCOc3ccccc32)cnc2c(-c3c(Cl)cccc3Cl)c(C)nn12 [Example 491] | 8.3 |
| O=C(N[C@H]1CCOc2ccccc21)c1cnc2c(-c3cc(Cl)ccc3Cl)c(C(F)F)nn2c1C1CC1 [Example 492] | 8.9 |
| O=C(N[C@H]1CCOc2ccccc21)c1cnc2c(-c3c(F)cccc3F)c(C(F)F)nn2c1C1CC1 [Example 493] | 8.7 |
| CC(C)c1c(C(=O)N[C@H]2CCOc3ccccc32)cnc2c(-c3cc(Cl)ccc3Cl)c(C(F)F)nn12 [Example 494] | 8.5 |
| CC(C)c1c(C(=O)N[C@H]2CCOc3ccccc32)cnc2c(-c3c(F)cccc3F)c(C(F)F)nn12 [Example 495] | 8.3 |
| CCc1c(C(=O)N[C@H]2CCOc3ccccc32)cnc2c(-c3ccc(F)c(OC)c3F)c(C)nn12 [Example 496] | 8.9 |
| CCc1c(C(=O)N[C@H]2CCOc3ccccc32)cnc2c(-c3cc(Cl)c(F)c(Cl)c3)c(C)nn12 [Example 497] | 8 |
| O=C(N[C@H]1CCOc2ccccc21)c1cnc2c(-c3ccc(F)c(F)c3F)c(C(F)F)nn2c1C1CC1 [Example 498] | 8.3 |
| O=C(N[C@H]1CCOc2ccccc21)c1cnc2c(-c3c(F)cccc3Cl)c(C(F)F)nn2c1C1CC1 [Example 499] | 8.5 |
| CC(C)c1c(C(=O)N[C@H]2CCOc3ccccc32)cnc2c(-c3ccc(F)c(F)c3)c(Cl)nn12 [Example 500] | 7.7 |
| Cc1nn2c(C3CC3)c(C(=O)N[C@H]3CCOc4ccccc43)cnc2c1-c1cccc(O)c1 [Example 501] | 6.3 |
| COc1c(F)ccc(-c2c(C(F)F)nn3c(C(C)C)c(C(=O)N[C@H]4CCOc5ccccc54)cnc23)c1F [Example 502] | 8.6 |
| CC(C)c1c(C(=O)N[C@H]2CCOc3ccccc32)cnc2c(-c3c(Cl)cccc3Cl)c(C(F)F)nn12 [Example 503] | 7.9 |
| Cc1nn2c(C3CC3)c(C(=O)N[C@H]3CCOc4ccccc43)cnc2c1-c1cc(C(F)(F)F)ccc1F [Example 504] | 8.9 |
| CC(C)c1c(C(=O)N[C@H]2CCOc3ccccc32)cnc2c(-c3cccc(Cl)c3Cl)c(C(F)F)nn12 [Example 505] | 8.5 |
| CC(C)c1c(C(=O)N[C@H]2CCOc3ccccc32)cnc2c(-c3c(F)cccc3Cl)c(C(F)F)nn12 [Example 506] | 8.1 |
| CC(C)c1c(C(=O)N[C@H]2CCOc3ccccc32)cnc2c(-c3ccc(Cl)cc3Cl)c(C(F)F)nn12 [Example 507] | 8.1 |
| CC(C)c1c(C(=O)N[C@H]2CCOc3ccccc32)cnc2c(-c3ccc(F)c(F)c3F)c(C(F)F)nn12 [Example 508] | 8.2 |
| Cc1nn2c(C3CC3)c(C(=O)N[C@H]3CCOc4ccccc43)cnc2c1-c1cc(C(F)(F)F)ccc1Cl [Example 509] | 8.9 |
| Cc1nn2c(C3CC3)c(C(=O)N[C@H]3CCOc4ccccc43)cnc2c1-c1cccc2c1CCO2 [Example 510] | 8.6 |
| O=C(N[C@H]1CCOc2ccccc21)c1cnc2c(-c3ccc(Cl)cc3Cl)c(C(F)F)nn2c1C1CC1 [Example 511] | 8.4 |
| O=C(N[C@H]1CCOc2ccccc21)c1cnc2c(-c3cccc(Cl)c3Cl)c(C(F)F)nn2c1C1CC1 [Example 512] | 8.9 |
